# Source: paper PMC9822133, “Design, Synthesis and Antiproliferative Evaluation of Bis-Indole Derivatives with a Phenyl Linker: Focus on Autophagy” (Molecules, 2022)
# Tested on: Phospho-ULK Ser555
# Experiment: Western blot, phospho-ULK1 Ser555
# Assay type: cell-based, human
# Conditions: A549, all time periods, mostly after 24 and 48 h
# Excerpt: ULK1/AMPK. ULK1 is a serine/threonine protein kinase. The ULK1 complex controls the formation of the phagophore, the initial autophagosomal precursor membrane structure. Upon induction of autophagy, the ULK1 complex translocates to autophagy initiation sites and regulates the recruitment of a second kinase complex, VPS34. ULK1 can be inhibited by phosphorylation by mammalian target of rapamycin complex 1 (mTORC1) or activated after AMP-activated protein kinase (AMPK) phosphorylation. Under conditions of nutrient deficiency, AMPK is activated, which directly activates ULK1. The kinase is phosphorylated, i.e., activated by an increased AMP/ATP ratio due to cellular and environmental stress. AMPK also inactivates mTORC1 and thus blocks its inhibitory action on autophagy activation.
# A549 cells were seeded on Petri dishes (55 cm^2) at a density of 1 × 10^6 and allowed to culture in the medium. After 24 h, the test substance was added, and the cells were incubated for 24, 48 and 72 h. […] After lysis, the cells were sonicated, and the protein concentration in the samples was quantified using the Pierce® BCA Protein Assay Kit (Thermo Scientific, Rockford, IL, USA) and measured by an automated Cytation™ 3 Cell Imaging Multi-Mode Reader (Biotek) at a wavelength of 570 nm. […]
smiles,measurement,value
"CC(C)(C)OC(=O)n1cc(CNC(=O)Nc2ccc(NC(=O)NCc3cn(C(=O)OC(C)(C)C)c4ccccc34)cc2)c2ccccc21 [Compound 49, N,N′-(1,4-phenylene)bis{N′-[1-(tert-butoxycarbonyl)indol-3-yl]methyl (urea)}]",phosphorylated form of ULK1 at Ser555,significant upregulation
